Numbering of substitutions follows the chain as printed.
Legend:
Type in all cases: biochemical
[1] = target: T1, human MCU and EMRE reconstituted in yeast mitochondria (HsMCU/EMRE) (Homo sapiens, UniProt Q8NE86); test: aequorin Ca2+ uptake rate in isolated yeast mitochondria, Hill fit
T1 sequence (Q8NE86 51-351): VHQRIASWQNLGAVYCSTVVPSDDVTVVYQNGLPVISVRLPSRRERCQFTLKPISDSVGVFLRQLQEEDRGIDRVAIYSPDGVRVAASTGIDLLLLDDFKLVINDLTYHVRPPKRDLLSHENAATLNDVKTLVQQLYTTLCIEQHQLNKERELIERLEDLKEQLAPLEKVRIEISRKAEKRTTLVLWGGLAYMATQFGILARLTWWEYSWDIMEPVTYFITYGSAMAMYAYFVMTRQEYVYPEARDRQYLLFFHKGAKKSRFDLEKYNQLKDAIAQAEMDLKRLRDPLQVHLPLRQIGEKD
T1 sequence (Q9H4I9 53-107 partner): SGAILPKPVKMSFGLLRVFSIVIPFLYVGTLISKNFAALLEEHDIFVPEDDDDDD

[2] = target: T2, human MCU and EMRE reconstituted in yeast mitochondria (HsMCU/EMRE) (Homo sapiens, UniProt Q8NE86, D261A); test: aequorin peak Ca2+ in isolated yeast mitochondria, Hill fit
T2 sequence (Q8NE86 51-351 D261A): T1 sequence (Q8NE86 51-351) with D211A
T2 sequence (Q9H4I9 53-107 partner): T1 sequence (Q9H4I9 53-107 partner)

[3] = target: T3, MCU (native mitochondrial calcium uniporter of HEK293T mitoplasts and HeLa cells) (Homo sapiens, UniProt Q8NE86); test: whole-mitoplast patch clamp, HEK293T; conditions: 1 mM bath Ca2+, -160 mV; bath (cytosolic) side, reversible
T3 sequence (Q8NE86 51-351): T1 sequence (Q8NE86 51-351)
T3 sequence (Q9H4I9 53-107 partner): T1 sequence (Q9H4I9 53-107 partner)

IC50 [1]	Structure (SMILES)	IC50 [2]	% reduction of MCU Ca2+ current at 10 μM [3]
36 ± 0.2 µM	Nc1ccc(NCCNCCO)c2c1C(=O)c1c(O)ccc(O)c1C2=O [impurity A]		
15 ± 1 µM	NCCNc1ccc(NCCN)c2c1C(=O)c1ccncc1C2=O [pixantrone]	31.8 ± 6.5 µM	

Structure (SMILES)	IC50 [1]	IC50 [2]	% reduction of MCU Ca2+ current at 10 μM [3]
O=C1c2c(O)ccc(O)c2C(=O)c2c(NCCNCCO)ccc(NCCNCCO)c21 [mitoxantrone]	8.3 ± 0.9 µM	10.7 ± 1.4 µM	~ 85%

Source: article PMC5825229 (Molecular cell, 2017)
